Reference: patent US12264156B2, “Compounds and pharmaceutical compositions thereof for the treatment of diseases” (GALAPAGOS NV, priority 2018, dated 2025)

Key:
SIK3 = biological target: T1, SIK3 (Homo sapiens, UniProt Q9Y2K2); test: ADP-Glo kinase assay, SIK3; type: biochemical; conditions: ADP-Glo SIK kinase assay
T1 construct: purchased SignalChem S12-11G-100
Method in brief: (§1)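 Enzyme–substrate mix was started with ATP and incubated 120 min at RT. ADP formed was quantified by ADP-Glo: 40 min ATP depletion, then 30 min detection reagent converting ADP to ATP for luciferase luminescence, which rises with kinase activity. Controls: 1% DMSO and 10 μM staurosporine (final).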

SIK2 = biological target: T2, SIK2 (Homo sapiens, UniProt Q9H0K1); test: ADP-Glo kinase assay, SIK2; type: biochemical; conditions: ADP-Glo SIK kinase assay
T2 construct: purchased ThermoFisher Scientific PV4792
Method in brief: as §1

[1] = system: LPS-induced TNFα in monocyte-derived macrophages (MdM); test: MdM assay: LPS-triggered TNFα (ELISA); type: cell-based, human; conditions: Homo sapiens, Macrophage, 20 h, monocyte-derived macrophages, LPS 200 ng/mL, supernatant after 20 h; read-out: TNFα EC50
Method in brief: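 Human monocyte-derived macrophages from CD14+ bead-selected buffy-coat PBMCs, used on day 10, pre-treated with compound for 1 h at 37 °C (0.2% DMSO), then stimulated with 200 ng/mL LPS. Supernatant taken after 20 h for TNFα sandwich ELISA (IL-10 at 2 h).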

T1 sequence (Q9Y2K2 whole entry): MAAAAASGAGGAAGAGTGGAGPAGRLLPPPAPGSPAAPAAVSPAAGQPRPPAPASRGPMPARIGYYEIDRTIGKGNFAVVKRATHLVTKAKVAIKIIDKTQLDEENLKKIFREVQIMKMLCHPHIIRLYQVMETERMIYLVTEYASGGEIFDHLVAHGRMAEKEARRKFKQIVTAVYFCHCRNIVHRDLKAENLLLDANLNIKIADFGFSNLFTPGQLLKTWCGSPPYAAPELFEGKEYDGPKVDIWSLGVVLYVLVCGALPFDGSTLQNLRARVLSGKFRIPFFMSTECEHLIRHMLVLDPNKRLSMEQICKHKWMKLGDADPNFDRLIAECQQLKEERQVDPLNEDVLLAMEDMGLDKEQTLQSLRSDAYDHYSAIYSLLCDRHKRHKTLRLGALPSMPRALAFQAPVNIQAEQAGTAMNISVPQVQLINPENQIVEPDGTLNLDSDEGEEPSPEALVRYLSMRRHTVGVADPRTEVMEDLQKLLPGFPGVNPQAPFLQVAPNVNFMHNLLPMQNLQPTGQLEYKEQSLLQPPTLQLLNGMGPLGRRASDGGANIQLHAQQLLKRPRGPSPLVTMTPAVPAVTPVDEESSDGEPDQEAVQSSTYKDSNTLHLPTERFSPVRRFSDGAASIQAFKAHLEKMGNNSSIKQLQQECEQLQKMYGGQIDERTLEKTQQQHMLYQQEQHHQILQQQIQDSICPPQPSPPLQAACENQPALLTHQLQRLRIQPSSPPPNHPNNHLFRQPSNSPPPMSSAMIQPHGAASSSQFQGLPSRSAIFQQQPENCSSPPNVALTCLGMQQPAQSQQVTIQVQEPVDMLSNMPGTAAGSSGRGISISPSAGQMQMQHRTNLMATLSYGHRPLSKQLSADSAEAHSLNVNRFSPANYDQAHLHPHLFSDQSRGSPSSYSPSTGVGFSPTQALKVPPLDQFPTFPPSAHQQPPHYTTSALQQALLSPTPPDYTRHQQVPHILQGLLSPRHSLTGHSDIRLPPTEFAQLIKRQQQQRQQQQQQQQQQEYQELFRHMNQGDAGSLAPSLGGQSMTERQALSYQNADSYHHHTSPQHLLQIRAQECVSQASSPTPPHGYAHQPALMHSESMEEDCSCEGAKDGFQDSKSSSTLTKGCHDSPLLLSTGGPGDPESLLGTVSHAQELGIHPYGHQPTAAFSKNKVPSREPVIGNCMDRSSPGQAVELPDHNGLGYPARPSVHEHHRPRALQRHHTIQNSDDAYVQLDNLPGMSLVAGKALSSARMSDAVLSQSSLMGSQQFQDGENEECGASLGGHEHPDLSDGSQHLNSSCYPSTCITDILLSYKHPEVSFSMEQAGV
T2 sequence (Q9H0K1 whole entry): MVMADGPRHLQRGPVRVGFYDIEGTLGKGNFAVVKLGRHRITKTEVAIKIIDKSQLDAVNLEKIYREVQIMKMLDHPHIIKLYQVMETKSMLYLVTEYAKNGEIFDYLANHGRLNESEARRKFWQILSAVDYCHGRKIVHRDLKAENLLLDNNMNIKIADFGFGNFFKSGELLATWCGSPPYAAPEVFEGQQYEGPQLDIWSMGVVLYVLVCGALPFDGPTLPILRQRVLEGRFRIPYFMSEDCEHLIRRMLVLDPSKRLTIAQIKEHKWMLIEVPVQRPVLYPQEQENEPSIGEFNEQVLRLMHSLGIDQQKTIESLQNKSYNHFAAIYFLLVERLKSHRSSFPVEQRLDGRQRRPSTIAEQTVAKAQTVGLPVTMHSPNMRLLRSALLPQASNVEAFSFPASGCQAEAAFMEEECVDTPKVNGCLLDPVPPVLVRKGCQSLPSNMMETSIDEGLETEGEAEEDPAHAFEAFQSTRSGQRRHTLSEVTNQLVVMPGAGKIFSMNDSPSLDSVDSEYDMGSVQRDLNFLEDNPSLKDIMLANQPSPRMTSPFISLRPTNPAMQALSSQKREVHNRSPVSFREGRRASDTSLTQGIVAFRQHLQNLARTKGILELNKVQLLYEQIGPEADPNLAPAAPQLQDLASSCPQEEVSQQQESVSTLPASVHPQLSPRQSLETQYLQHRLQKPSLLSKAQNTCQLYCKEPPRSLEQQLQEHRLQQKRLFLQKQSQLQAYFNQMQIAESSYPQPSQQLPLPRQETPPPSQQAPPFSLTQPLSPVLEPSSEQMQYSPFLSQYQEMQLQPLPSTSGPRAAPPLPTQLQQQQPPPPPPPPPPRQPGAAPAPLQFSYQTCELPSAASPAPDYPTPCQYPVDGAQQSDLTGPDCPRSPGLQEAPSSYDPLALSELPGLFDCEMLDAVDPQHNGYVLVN

IC50 (SIK3): 0.01 to 10 nM
IC50 (SIK2): 0.01 to 10 nM
EC50 [1]: 0.1 to 100 nM
Structure (SMILES): CCOC(=O)C1(F)CCN(CCOc2ccn3c(-c4cc(OC)c(C(=O)NC5CC5)c(OC(F)F)c4)cnc3c2)CC1 [compound 390, ethyl 1-[2-[3-[4-(cyclopropylcarbamoyl)-3-(difluoromethoxy)-5-methoxy-phenyl]imidazo[1,2-a]pyridin-7-yl]oxyethyl]-4-fluoro-piperidine-4-carboxylate]
